Test results reported in publication PMC11995724, “Antibiotic target discovery by integrated phenotypic and activity-based profiling of electrophilic fragments” (Cell chemical biology, 2025).
Counter-ions that a name gives are not always drawn.

Test: in vitro
Conditions: human, hek293t cells

Structure (SMILES) | viability at 48 h, 25 µM
Cc1noc(C23CC(CN2C(=O)C(C)Cl)C3)n1 (centres unmarked) [7-E10, 2-chloro-1-[1-(3-methyl-1,2,4-oxadiazol-5-yl)-2-azabicyclo[2.1.1]hexan-2-yl]propan-1-one] | 93.2%
CC(Cl)C(=O)Nc1cc(Cl)ccc1Cl (centres unmarked) [6-A15, 2-chloro-N-(2,5-dichlorophenyl)propanamide] | 86.9%
CS(=O)(=O)c1ccc(C(=O)CCl)cc1 [10-I13, 2-chloro-1-(4-methanesulfonylphenyl)ethan-1-one] | 65.1%
C=CC(=O)NCCC(=O)N1CC[S+]([O-])C(C)(C)CC1 (centres unmarked) [3-O17, N-[3-(7,7-dimethyl-1-oxo-1lambda4,4-thiazepan-4-yl)-3-oxopropyl]prop-2-enamide] | 58.5%
N#CC(=Cc1c(F)cccc1F)C(=O)Nc1ccccc1Cl [9-I20, N-(2-chlorophenyl)-2-cyano-3-(2,6-difluorophenyl)prop-2-enamide] | 114%
O=C(CCl)NC(Cc1ccccc1)c1ccccc1 (centres unmarked) [4-L11, 2-chloro-N-(1,2-diphenylethyl)acetamide] | 0.317%
C=CC(=O)NC1(C(N)=O)Cc2ccccc2C1 [2-D15, 2-(prop-2-enamido)-2,3-dihydro-1H-indene-2-carboxamide] | 69.7%
N#CC(=Cc1ccc(-c2ccccc2)cc1)C(=O)N1CCCC1 [9-B08, 3-{[1,1'-biphenyl]-4-yl}-2-(pyrrolidine-1-carbonyl)prop-2-enenitrile] | 71.2%
C=CC(=O)Nc1ccc2c(c1)CCO2 [1-O11, N-(2,3-dihydro-1-benzofuran-5-yl)prop-2-enamide] | 87.8%
C=CC(=O)NC12CC3CC(CC(C3)C1)C2 [1-E12, N-(adamantan-1-yl)prop-2-enamide] | 56.7%
CC(Cc1c[nH]c2cc(F)c(F)cc12)NC(=O)CCl (centres unmarked) [5-I07, 2-chloro-N-[1-(5,6-difluoro-1H-indol-3-yl)propan-2-yl]acetamide] | 0.657%
N#CC(=Cc1cccc(O)c1)C(=O)Nc1ccccc1C(=O)O [9-O16, 2-[2-cyano-3-(3-hydroxyphenyl)prop-2-enamido]benzoic acid] | 125%
CC(Cl)C(=O)NCCC1=CCCCCC1 (centres unmarked) [5-N19, 2-chloro-N-[2-(cyclohept-1-en-1-yl)ethyl]propanamide] | 120%
C=CC(=O)Nc1cnn(-c2ccccc2C)c1C(F)F [1-E22, N-[5-(difluoromethyl)-1-(2-methylphenyl)-1H-pyrazol-4-yl]prop-2-enamide] | 116%
C#CCN(C(=O)c1ccc(NC(=O)C=C)cc1)C1CCCCC1 [3-D13, N-cyclohexyl-4-(prop-2-enamido)-N-(prop-2-yn-1-yl)benzamide] | 15.9%
C=CC(=O)N1CCN(Cc2ccon2)CC1 [1-N20, 1-{4-[(1,2-oxazol-3-yl)methyl]piperazin-1-yl}prop-2-en-1-one] | 79.6%
COc1ccc(-c2csc(NC(=O)CCl)n2)c(OC)c1 [4-F12, 2-chloro-N-[4-(2,4-dimethoxyphenyl)-1,3-thiazol-2-yl]acetamide] | 0.886%
C=CC(=O)N1CCC(Cc2nc3ccc(F)cc3o2)CC1 [3-O07, 1-{4-[(6-fluoro-1,3-benzoxazol-2-yl)methyl]piperidin-1-yl}prop-2-en-1-one] | 47.3%
C=CC(=O)NCc1cc(-c2cccc(OC)c2)no1 [1-I11, N-{[3-(3-methoxyphenyl)-1,2-oxazol-5-yl]methyl}prop-2-enamide] | 76.7%
N#Cc1cc([N+](=O)[O-])ccc1NC(=O)CCl [4-O09, 2-chloro-N-(2-cyano-4-nitrophenyl)acetamide] | 1.1%
Cc1n[nH]c(C)c1C=C(C#N)C(=O)Nc1ccc(SC(F)F)cc1 [8-E08, 2-cyano-N-{4-[(difluoromethyl)sulfanyl]phenyl}-3-(3,5-dimethyl-1H-pyrazol-4-yl)prop-2-enamide] | 78.2%
CC1CCCCC1NC(=O)C(C#N)=Cc1cccc(O)c1 (centres unmarked) [8-E07, 2-cyano-3-(3-hydroxyphenyl)-N-(2-methylcyclohexyl)prop-2-enamide] | 45.1%
Cc1cc(C(=O)CCl)c(C)n1-c1ccc(C(C)(C)C)cc1 [10-N20, 1-[1-(4-tert-butylphenyl)-2,5-dimethyl-1H-pyrrol-3-yl]-2-chloroethan-1-one] | 0.606%
CCN(CC)S(=O)(=O)c1cccc(NC(=O)CCl)c1 [4-M07, 2-chloro-N-[3-(diethylsulfamoyl)phenyl]acetamide] | 1.11%
O=C(CCl)NC1c2ccccc2CCC1n1ccnc1 (centres unmarked) [7-N14, 2-chloro-N-[2-(1H-imidazol-1-yl)-1,2,3,4-tetrahydronaphthalen-1-yl]acetamide hydrochloride] | 95.8%
COc1cc([N+](=O)[O-])ccc1N1C(=O)C=CC1=O [10-H13, 1-(2-methoxy-4-nitrophenyl)-2,5-dihydro-1H-pyrrole-2,5-dione] | 97.6%
C=CC(=O)N1CCC(C(=O)NCc2ncc(N(C)C)cn2)CC1 [3-L03, N-{[5-(dimethylamino)pyrimidin-2-yl]methyl}-1-(prop-2-enoyl)piperidine-4-carboxamide] | 68.2%

Structure (SMILES) | viability at 48 h, 25 µM
CC(Cl)C(=O)NC(C)c1nc(-c2cccnc2)cs1 (centres unmarked) [6-P07, 2-chloro-N-{1-[4-(pyridin-3-yl)-1,3-thiazol-2-yl]ethyl}propanamide] | 115%
C=CC(=O)NCC1CCN(c2ccccc2)C1 (centres unmarked) [3-B17, N-[(1-phenylpyrrolidin-3-yl)methyl]prop-2-enamide] | 66.8%
COc1ccccc1NC(=O)C(C#N)=Cc1ccco1 [8-H08, 2-cyano-3-(furan-2-yl)-N-(2-methoxyphenyl)prop-2-enamide] | 93%
Cc1oc(C(=O)O)cc1C(=O)CCl [10-M21, 4-(2-chloroacetyl)-5-methylfuran-2-carboxylic acid] | 91%
C=CC(=O)N(C)C1CS(=O)(=O)C1 [1-E03, N-(1,1-dioxo-1lambda6-thietan-3-yl)-N-methylprop-2-enamide] | 86.3%
COC(=O)c1c(-c2ccccc2Cl)csc1NC(=O)CCl [4-F07, methyl 2-(2-chloroacetamido)-4-(2-chlorophenyl)thiophene-3-carboxylate] | 5.7%
C=CC(=O)NCC1CCC2(CCCC2)O1 (centres unmarked) [1-A06, N-({1-oxaspiro[4.4]nonan-2-yl}methyl)prop-2-enamide] | 106%
C=CC(=O)NCc1c(F)cccc1S(=O)(=O)N(C)C [3-L15, N-{[2-(dimethylsulfamoyl)-6-fluorophenyl]methyl}prop-2-enamide] | 83.2%
CC(Cl)C(=O)N1CCN(C(=O)Cc2cccc(Cl)c2)C(C)C1 (centres unmarked) [7-E20, 2-chloro-1-{4-[2-(3-chlorophenyl)acetyl]-3-methylpiperazin-1-yl}propan-1-one] | 65.1%
CC(Cl)C(=O)N1Cc2ccccc2OC(C)(C)C1 (centres unmarked) [6-H19, 2-chloro-1-(2,2-dimethyl-2,3,4,5-tetrahydro-1,4-benzoxazepin-4-yl)propan-1-one] | 91%
C=CC(=O)N(CC)CC(=O)N1CCCC1c1cn(C)nc1C (centres unmarked) [2-N12, N-{2-[2-(1,3-dimethyl-1H-pyrazol-4-yl)pyrrolidin-1-yl]-2-oxoethyl}-N-ethylprop-2-enamide] | 85.2%
O=C(CCl)N(Cc1ccccc1)CC(F)(F)F [4-B20, N-benzyl-2-chloro-N-(2,2,2-trifluoroethyl)acetamide] | 1.12%
C=CC(=O)NCc1cccc(N2C(=O)NC3(CCCC3)C2=O)c1 [2-M11, N-[(3-{2,4-dioxo-1,3-diazaspiro[4.4]nonan-3-yl}phenyl)methyl]prop-2-enamide] | 89.7%
C=CC(=O)N(C)CC(=O)N1CCOC(c2ccccc2Cl)C1 (centres unmarked) [2-J04, N-{2-[2-(2-chlorophenyl)morpholin-4-yl]-2-oxoethyl}-N-methylprop-2-enamide] | 72.1%
CN(Cc1ccccc1)S(=O)(=O)c1ccc(NC(=O)CCl)cc1 [5-K08, N-{4-[benzyl(methyl)sulfamoyl]phenyl}-2-chloroacetamide] | 16.1%
C=CC(=O)N1CCC(C(=O)NCc2ncnn2CC)CC1 [3-P03, N-[(1-ethyl-1H-1,2,4-triazol-5-yl)methyl]-1-(prop-2-enoyl)piperidine-4-carboxamide] | 71.2%
CC(Cl)C(=O)N1CCc2c(nnn2C)C1 (centres unmarked) [7-G22, 2-chloro-1-{1-methyl-1H,4H,5H,6H,7H-[1,2,3]triazolo[4,5-c]pyridin-5-yl}propan-1-one] | 80.5%
Cn1cc(S(=O)(=O)N2CCOCC2)cc1C(=O)NC(=O)CCl [4-P20, N-(2-chloroacetyl)-1-methyl-4-(morpholine-4-sulfonyl)-1H-pyrrole-2-carboxamide] | 106%
CC(Cl)C(=O)N1CCC(n2nnc3c2CCCC3)CC1 (centres unmarked) [7-H17, 2-chloro-1-[4-(4,5,6,7-tetrahydro-1H-1,2,3-benzotriazol-1-yl)piperidin-1-yl]propan-1-one] | 90%
C=CC(=O)NC(C1CCC1)C1CCOC1 (centres unmarked) [1-O22, N-[cyclobutyl(oxolan-3-yl)methyl]prop-2-enamide] | 113%
CC(Cl)C(=O)N(C)C1CCN(c2ccccc2Cl)C1=O (centres unmarked) [7-C16, 2-chloro-N-[1-(2-chlorophenyl)-2-oxopyrrolidin-3-yl]-N-methylpropanamide] | 77.8%
CCOC(=O)c1c(NC(=O)CCl)sc(C)c1C [4-O15, ethyl 2-(2-chloroacetamido)-4,5-dimethylthiophene-3-carboxylate] | 57%
C=CC(=O)NC(C)Cn1nc(C)cc1C (centres unmarked) [1-F10, N-[1-(3,5-dimethyl-1H-pyrazol-1-yl)propan-2-yl]prop-2-enamide] | 55.7%
CCNC(=O)C(C#N)=Cc1ccc(OC(F)F)cc1 [8-E05, 2-cyano-3-[4-(difluoromethoxy)phenyl]-N-ethylprop-2-enamide] | 81.4%
Cc1cc2ncn(CC(NC(=O)C(C)Cl)C3CC3)c2cc1C (centres unmarked) [7-J17, 2-chloro-N-[1-cyclopropyl-2-(5,6-dimethyl-1H-1,3-benzodiazol-1-yl)ethyl]propanamide] | 84.7%
O=C(CCl)Nc1ccc(N=Nc2ccccc2)cc1 [4-C11, 2-chloro-N-[4-(2-phenyldiazen-1-yl)phenyl]acetamide] | 0.339%
